Measurements from US20160051493A1, “METHODS OF TREATMENT OF KERATINOCYTE-DERIVED LESIONS” (THE TRUSTEES OF COLUMBIA UNIVERSITY IN THE CITY OF NEW YORK, priority 2012, published 2016).
Entries after “also recorded” stand apart in the source; their conditions may differ. Like-named read-outs stand apart in the source and are kept apart here.

How the values were obtained:
[1] = system: normal human epidermal keratinocytes; experiment: Ratiometric fura-2 live-cell calcium imaging of keratinocytes; type: cell-based; conditions: for % Responders (undifferentiated) Mean ± SEM or SD: growth conditions, saturating agonist (4αPDD 3 μM, camphor 10 mM, 2-APB 100 μM, capsaicin 1 μM, mustard oil 300 μM), SD for capsaicin and mustard oil; for cytoplasmic Ca2+ signals in undifferentiated keratinocytes: 0.15%, within 1 minute of perfusion, versus vehicle
Protocol: (§1) Normal human keratinocytes were isolated from human foreskins by undergoing two enzymatic dissociation steps, first in dispase then in trypsin. Cells were cultured in EpiLife supplemented with human keratinocyte growth supplement (HKGS; Invitrogen). For all experiments with undifferentiated cells, keratinocytes were harvested or images at ˜75% confluency. Differentiation was induced by adding CaCl2 to the EpiLife media to reach a final [Ca2+] of 1.2 mM. Cells were typically cultured for 3 days under differentiation conditions before they were assayed. Keratinocytes were cultured for <5 passages. Purified Camphor (CAS #76-22-2), 2-APB (Tocris) or vehicle (1% EtOH)-containing media were used as indicated.
Human keratinocytes and SCC cells were washed in Ringer's solution (in mM: NaCl 140, KCl 5, D-glucose 10, HEPES 10, CaCl2 2, MgCl2 2, pH 7.2) and loaded with 5 μM fura-2AM and 1 μM pluronic (Invitrogen) for 30 minutes in the dark. During live-cell imaging, saturating concentrations of TRP agonists (10 mM Camphor, 100 μM 2-APB 1 μM Capsaicin, 300 μM Mustard oil or 3 μM 4αPDD) in Ringer's were used. Cells were imaged for 20 s to establish a baseline and then acutely treated with each agonist for 60 seconds. Imaging was performed on an Olympus IX81 microscope with a 20× (NA 0.17) objective and a Hamamatsu ORCA-R2 camera. 340- and 380-nm excitation and 540-nm emission filters were used to capture fura-2 fluorescence. Data are expressed as a ratio of fluorescent signals (340/380). All data acquisition was performed in MetaFluor. Data analysis was performed with custom algorithms in IgorPro. Cells with baseline levels ±2 SD above the mean were excluded from analysis as unhealthy. Responders were designated as cells whose 340/380 ratio was ≧20% above baseline.
TRP channels are selectively activated by endogenous and exogenous ligands at micromolar to millimolar concentrations. Since TRP channel activity increases over this range to allow graded Ca^2+ influx, receptor activity levels can be monitored by live-cell Ca^2+ imaging. A ratiometric calcium indicator (Fura-2) was employed to determine whether a panel of TRP-channel agonists elicited cytoplasmic calcium increases in human epidermal keratinocytes. (FIG. 1A-1E, FIG. 2A-2B, and Table 3).
Normal human keratinocytes were cultured in low-calcium media to promote proliferation or in 1.2-mM calcium media to induce differentiation. For live-cell imaging, keratinocytes were then washed and bathed in Ringer's solution containing 2 mM calcium so that calcium signals could be directly compared between cell populations.
In keratinocytes, increased intracellular calcium stimulates the terminal differentiation process. To determine whether camphor oil and its abundant constituents are directly bioactive on epithelial keratinocytes, a ratiometric Ca2+ indictor (Fura-2) was employed to test whether a panel of terpenes elicited cytoplasmic Ca2+ increases in undifferentiated human epidermal keratinocytes (FIG. 19A-19C). Keratinocytes were cultured according to our standard methods. For live-cell imaging, keratinocytes were bathed in Ringer's solution containing 2 mM Ca2+.

[2] = 0.5 to 5 percent ointment or liquid, once or twice a day for two to four weeks; cited from earlier work
[3] = system: normal human keratinocytes; experiment: Keratinocyte cell counts (DAPI), morphology and EdU proliferation assay after 24 h treatment; conditions: in the presence of camphor
Protocol: as §1
Cells were treated with 2-APB or camphor for 24 hours at 37° C., exposed to EdU for 45 min, fixed and stained with DAPI for cell counting. EdU Click-It assays (Invitrogen) were used to assess cell-cycle entry. The cells were then fixed and stained with DAPI. Three fields per well were assayed via a 20× objective and there were 4 wells per treatment in each experiment. EdU=5-ethynyl-2′-deoxyuridine.
As Ca^2+ triggers the commitment switch from proliferation to differentiation in keratinocytes, it was reasoned that increasing intracellular calcium by incubating keratinocytes in TRP agonists might be sufficient to induce this cell-fate switch in low-calcium growth media. To test this hypothesis, normal human keratinocytes were cultured for 24 hours under low-Ca^2+ conditions in the presence of low (12.5 μM), half-maximal (50 μM) and saturating (100 μM) concentrations of 2-APB (FIG. 3A) or camphor (0-8 mM) (FIG. 3E). These TRP agonists were chosen because they reliably elicited intracellular calcium signaling in normal human keratinocytes (FIG. 1A-1E).
As camphor can activate both TRPV3 and TRPV1 channels, these experiments were repeated in the presence of a specific TRPV1 antagonist, AMG-9810 (Gavva et al., 2005).

TRPV3 = conditions: reported in literature; cited from earlier work
skin tumors = conditions: mouse, in vivo; cited from earlier work
[4] = system: precancerous lesions and SCCs; type: in vivo; conditions: 20% wt/wt in acetone, topical once daily, five weeks
normal keratinocytes = experiment: In vivo keratinocyte proliferation (EdU, flow cytometry) in healthy mouse skin; design: species or system mice; conditions: 20% topical, five consecutive days
Protocol: Age matched FVB (female mice purchased from Jackson labs) aged 6-8 weeks were shave on their dorsal sides. Mice were then treated for five consecutive days with vehicle, 20% camphor white oil, 20% eucalyptol, 20% α-pinene, 20% dipentene, or 20% γ-terpinene (2-6 mice per group). Mice were then injected with EdU and sacrificed one hour later. The epidermis was isolated and stained for Itgα6, Sca1+, and EDU. Itgα6+Sca1+EdU+ cells were then identified on a flow cytometer.
To test whether effects of camphor white oil on normal keratinocytes are TrpV3 dependent proliferation in TrpV3 mutant and wild type mice treated with camphor oil was analyzed. TrpV3 mutant and wild type mice aged 6-8 weeks were shaved on their dorsal sides. Mice were then treated for five consecutive days with vehicle or 20% camphor oil (4-5 mice per group). Mice were then injected with EdU (5-ethynyl-2′-deoxyuridine) and sacrificed one hour later. The epidermis was isolated and stained for Itga6, Sca1, and EdU. Itga6+Sca1+EdU+ cells were then identified on a flow cytometer to identify cells in the intrafollicular epidermis that are actively proliferating.

[5] = responders F340:F380 increase ≧20%

SMILES: CCCCCCCCCC(=O)O[C@@H]1[C@@H](C)[C@@]2(O)[C@@H](C=C(CO)C[C@@]3(O)C(=O)C(C)=C[C@@H]23)[C@@H]2C(C)(C)[C@]12OC(=O)CCCCCCCCC [4αPDD, 4α-phorbol-12,13 didecanoate, reference compound]
- % Responders (differentiated) Mean ± SEM ([1]; differentiated in 1.2 mM Ca2+, responders F340:F380 increase ≧20%, 4αPDD 3 μM, camphor 10 mM, 2-APB 100 μM): 70.8 ± 11.1%
- % Responders (undifferentiated) Mean ± SEM or SD [1, 5]: 84.8 ± 1.6%
- keratinocytes with robust increases in intracellular Ca2+ ([1]; growth or differentiation conditions): > 70%

SMILES: O=c1[nH]cc(F)c(=O)[nH]1 [5-fluorouracil]
- cure rates [2]: up to 93%

SMILES: CC(C)(C)c1ccc(/C=C/C(=O)Nc2ccc3c(c2)OCCO3)cc1 [AMG-9810, (E)-3-(4-t-butylphenyl)-N-(2,3-dihydrobenzo[b][1,4]dioxin-6-yl)acrylamide, reference compound]
- effect of TRPV1 inhibition on camphor's effects on keratinocyte proliferation [3]: did not alter

SMILES: CC1(C)C2CCC1(C)C(O)C2 (centres unmarked) [Borneol, reference compound]
- effectiveness as a TRPV3 agonist relative to camphor (TRPV3): more effective than camphor

SMILES: COc1cc(CNC(=O)CCCC/C=C/C(C)C)ccc1O [Capsaicin, reference compound]
- % Responders (undifferentiated) Mean ± SEM or SD [1, 5]: 2.3+/−2.6%

SMILES: CC1(C)C2CCC1(CS(=O)(=O)O)C(=O)C2=Cc1ccc(C=C2C(=O)C3(CS(=O)(=O)O)CCC2C3(C)C)cc1 [Ecamsule, Terephthalylidene Dicamphor Sulfonic Acid]
- Results of safety: against skin tumors in mice (skin tumors): Protects

SMILES: C=CCN=C=S [Mustard oil, reference compound]
- % Responders (undifferentiated) Mean ± SEM or SD [1, 5]: 0.6 ± 1.2%^
- % Responders (undifferentiated) Mean ± SEM or SD ([1]; responders F340:F380 increase ≧20%, listed as Mustard Oil): 0.6+/−1.2%
- % Responders (undifferentiated) Mean ± SEM or SD ([1]; responders F340:F380 increase ≧20%, listed as mustard oil): 0.6+/−1.2%

SMILES: C=C(C)[C@H]1CC=C(C)CC1 [dipentene, Dipentene]
- premalignant tumors per mouse versus vehicle [4]: antitumor effects
- premalignant tumors per mouse versus vehicle ([4]; listed as Dipentene): most striking tumor reductions
- keratinocyte proliferation (Itgα6+Sca1+EdU+ cells) compared with vehicle (normal keratinocytes): significant increases

SMILES: CC12CCC(CC1)C(C)(C)O2 [eucalyptol, Eucalyptol]
- cytoplasmic Ca2+ signals in undifferentiated keratinocytes [1]: no effects
- keratinocyte proliferation (Itgα6+Sca1+EdU+ cells) compared with vehicle (normal keratinocytes): significant increases

SMILES: CC1=CCC2CC1C2(C)C (stereo not drawn) [α-pinene, α-Pinene]
- premalignant tumors per mouse versus vehicle [4]: antitumor effects; also recorded: most striking tumor reductions
- cytoplasmic Ca2+ signals in undifferentiated keratinocytes [1]: stimulated detectable calcium signals; also recorded: induced calcium increases
- keratinocyte proliferation (Itgα6+Sca1+EdU+ cells) compared with vehicle (normal keratinocytes): significant increases

SMILES: CC1=CCC(C(C)C)=CC1 [γ-terpinene, γ-Terpinene]
- keratinocyte proliferation (Itgα6+Sca1+EdU+ cells) compared with vehicle (normal keratinocytes): significant increases
